# In US6626844B1, “Method and composition for inhibition of nitric oxide production in the oral cavity” (Aerocrine AB, priority 1998, dated 2003):
# Key:
# [1] = tested on: NO in exhaled air; test: Mouthwashes and NO in exhaled air; format: in vivo, humans
# From the text: (§1) Ten healthy non-smoking subjects, age 23-43, were included in the study. The NO measurements were made with a chemiluminescense technique according to the recommendations recently described in the ERS Task Force Report (Kharitonov et al., 1997). The values of NO concentration were then registered in a computer software program together with the values of flow and pressure, measured with a pneunotachygraf, and calculations of these parameters were presented on a screen.
# The following describes briefly the “single-breath” method for orally exhaled air. Compressed NO free air was continuously flowing into a non-diffusing gas collection bag, 100 l capacity (Hans Rudolph Inc.), at a rate of 2-3 l/min. The bag was connected via a tube to a Y-piece with a one-way valve, which in turn was adapted to a mouthpiece. Before the measurements the subjects inhaled NO free air through the mouthpiece and were asked to hold their breath for 10 s while they put their tongue into the mouthpiece's opening, in order to prevent NO from diffusing out. Then the subjects exhaled through the mouthpiece at a flow rate of about 0.15 l/s against a resistance of 50 cmH2O/l/s (Hans Rudolph Inc.), giving rise to an oral pressure of 8-10 cmH2O, for a period of 20 s. The exhaled air went out through the other one-way valve in the Y-piece leading on to a linear pneumotachymeter (Hans Rudolph Inc.), where the values of flow and pressure were registered and transformed into digital signals recorded by a computer software program (Medical Breath Analyser™ from Aerocrine AB, Sweden). The recordings were instantly visualized on a computer screen, which enabled the subjects to maintain a certain flow (i.e. 0.15 l/s), adjusting the exhalation to the flow curve. A fraction of the exhaled air was aspirated into the NO analyzer (Eco Physics Inc., Model CLD 700 AL) at a flow rate of approximately 0.5 l/min, through a 110-cm narrow-bore and Teflon®-coated tube connected to the mouthpiece. The detected NO levels were passed on to the computer and integrated with the figures for flow and pressure for calculation of NO release rate (pmol/s) and NO amount (pmol). NO release was calculated by the formula: NO-conc×Q=pmol/s×l/s=pmol/s. The conversion of NO-conc in ppb to a molecular unit goes via the fact that the volume of 1 mol of NO takes up 24.445 liters at normal temperature and pressure. Given this 1 ppb NO equals 40.908 pM. At the flow of 0.15 l/s and e.g. a NO-conc of 10 ppb the NO release equals 67 pmol/s. The use of NO-release, instead of NO-concentration as a registration unit, has the advantage of taking the flow rate into account, whereas in the use of NO-concentration the exhalation flow is not taken into consideration. In addition to the curves for flow and pressure two curves for NO concentration and NO release were plotted on the screen and calculated mean values were presented for the last 40% of the breath, representing the plateau phase. NO amount was also presented for the first 40%, representing the area under curve for the peak.
# In order to further manipulate with the conditions in the oral cavity and perhaps influence the formation of NO from salivary nitrite different mouthwashes were introduced in the study. On a separate day, from that of the nitrate load, the ten subjects volunteered to have their NO in exhaled air measured after rinsing their mouth with distilled water, sodium bicarbonate-, ascorbic acid- and, nitrite solutions in named order. Further, a mouthwash with Chlorhexidine acetate 0.2% was included in the study.
# In the first series of mouthwashes 5 baseline measurements with a breathhold were performed to obtain a reference value. In fact, all measurements in this part of the experiment were done with a breathhold, for the reasons described above. […]
# [2] = tested on: NO synthesis in the oral cavity; details: prior treatment with mouthwash, healthy volunteers; cited from earlier work
# [3] = tested on: exhaled NO output; test: Mouthwash trials: NO output in exhaled air; format: in vivo, humans; details: for effect on NO output: 30 s mouthwash with 25 ml
# Experimental: Experimental protocol: Exhaled NO was measured at an exhalation flow rate of 100 ml/s and the NO output was calculated. Measurements were repeated 3 times at each time point and the median value was used. After baseline measurements, the test subjects (n=3) were asked to rinse their mouth with 25 ml of different solutions during 30 s whereafter the solution was spat out All solutions were made up in distilled water. Exhaled NO measurements were repeated directly after, and 5, 15 and 30 min after the mouthwash procedure. Results are given as mean relative changes in NO output compared to baseline measurements.
# [4] = tested on: NO in exhaled air; test: Mouthwash after nitrate loading, NO in exhaled air; format: in vivo, humans
# Experimental: The experiment was terminated with a mouthwash of sodium bicarbonate after 180 min with a following single-breath measurements. This to examine whether the mouthwash's possible reduction of the NO formation would be enhanced at a stage when one would expect high levels of NO. For mouthwash procedure see below.
# In addition to the mouthwash with sodium bicarbonate after […], the effects of chlorhexidine was studied at a stage when one could expect larger amounts of nitrite in the saliva. This was also done in a separate experiment, on a separate day, not to interfere with the results of the original nitrate loading study. Five single-breaths with a breathhold were carried out to obtain a reliable baseline. Thereafter a load of 400 mg potassium nitrate was ingested, as described above. However, to facilitate this experiment for the subjects there was no demand for fasting. Five additional single-breaths were performed 90 min later—to get representative mean values of NO after nitrate ingestion. The subjects then rinsed their mouths with 2.5 cl chlorhexidine acetate 0.2% for 30 s and performed a NO measurement immediately afterwards. The single-breath procedure was also repeated 2, 5, 10, 20 and 30 min after the mouthwash.
# [5] = tested on: NO formation from saliva
# Experimental: On another occasion the subjects were asked to produce 10 ml of saliva, without time restriction, by again chewing on a piece of Teflon®-plastic. Half of this, i.e. 5 ml, was put in a 50 ml plastic syringe with an addition of 0.5 ml distilled water and closed with a three-way stopcock after filling it up with 50 ml of room air. The remaining 5 ml were mixed with 0.5 ml 20 mM nitrite solution (resulting in a salivary nitrite concentration of a […]) and put in another syringe filled with 50 ml of room air. The two syringes were put in a warming cupboard with an approximate temperature of 40° C. for 15 min. The air head space from both syringes was then collected in two separate empty 50 ml syringes and it's NO concentration was determined by the NO chemiluminescence analyser.
# [6] = tested on: NO in exhaled air; test: Nitrate loading: NO in orally exhaled air, single-breath chemiluminescence; format: in vivo, humans
# From the text: as §1
# The following describes briefly the “single-breath” method for orally exhaled air. Compressed NO free air was continuously flowing into a non-diffusing gas collection bag, 100 l capacity (Hans Rudolph Inc.), at a rate of 2-3 l/min. The bag was connected via a tube to a Y-piece with a one-way valve, which in turn was adapted to a mouthpiece. Before the measurements the subjects inhaled NO free air through the mouthpiece and were asked to hold their breath for 10 s while they put their tongue into the mouthpiece's opening, in order to prevent NO from diffusing out. Then the subjects exhaled through the mouthpiece at a flow rate of about 0.15 l/s against a resistance of 50 cmH2O/l/s (Hans Rudolph Inc.), giving rise to an oral pressure of 8-10 cmH2O, for a period of 20 s. The exhaled air went out through the other one-way valve in the Y-piece leading on to a linear pneumotachymeter (Hans Rudolph Inc.), where the values of flow and pressure were registered and transformed into digital signals recorded by a computer software program (Medical Breath Analyser™ from Aerocrine AB, Sweden). The recordings were instantly visualized on a computer screen, which enabled the subjects to maintain a certain flow (i.e. 0.15 l/s), adjusting the exhalation to the flow curve. A fraction of the exhaled air was aspirated into the NO analyzer (Eco Physics Inc., Model CLD 700 AL) at a flow rate of approximately 0.5 l/min, through a 110-cm narrow-bore and Teflon®-coated tube connected to the mouthpiece. The detected NO levels were passed on to the computer and integrated with the figures for flow and pressure for calculation of NO release rate (pmol/s) and NO amount (pmol). NO release was calculated by the formula: NO-conc×Q=pmol/s×l/s=pmol/s. The conversion of NO-conc in ppb to a molecular unit goes via the fact that the volume of 1 mol of NO takes up 24.445 liters at normal temperature and pressure. Given this 1 ppb NO equals 40.908 pM. At the flow of 0.15 l/s and e.g. a NO-conc of 10 ppb the NO release equals 67 pmol/s. The use of NO-release, instead of NO-concentration as a registration unit, has the advantage of taking the flow rate into account, whereas in the use of NO-concentration the exhalation flow is not taken into consideration. In addition to the curves for flow and pressure two curves for NO concentration and NO release were plotted on the screen and calculated mean values were presented for the last 40% of the breath, representing the plateau phase. NO amount was also presented for the first 40%, representing the area under curve for the peak. […]
# Changes in NO levels were analysed by using non-parametric ANOVA for paired and repeated measures with subsequent Dunn's post-test as offered by InStat from GraphPad Software. Nitrate and nitrite concentrations in the saliva were analysed by the non-parametric method of […] for paired measurements, using the same software. […]
# [7] = tested on: nasal NO; test: Nasal NO after nitrate loading; format: in vivo, humans; details: 5-180 min after nitrate loading
# From the text: To look into nasal NO levels a somewhat new approach taking advantage of the set-up for measurements in exhaled air was used. A “nose-olive”, tried out individually for a tight fitting to the subject's nostrils, was attached to the Teflon®-coated tube leading in to the NO-analyzer. The olive was then placed in one of the nostrils letting the NO analyzer aspirate air from the nasal cavity. Even though the subjects kept breathing through their mouth the NO concentrations oscillated with every breath, pointing to a leakage of NO from the nose to the oral cavity. The subjects were asked to take a deep breath and exhale through the mouthpiece against the same resistance as above, while the olive still was sampling from the nose. The oscillations of the NO values then ceased and the concentrations increased to a stable plateau, visualized on the computer screen. The time for exhalation was set to 20 s. which was well sufficient to reach a plateau. A mean value of the NO concentration during the last 40% of the exhalation, i.e. 8 s. was presented by the computer program and included in the protocol. […]
# An amount of 400 mg potassium nitrate was dissolved in a cup of distilled water and then swallowed down. […] NO in exhaled air was measured first without and then with a breathhold, as mentioned above.
# [8] = immediately after 30 s mouthwash (3 cl), with breathhold, baseline 41.1±3.3, n=10
# [9] = immediately after 30 s mouthwash, baseline 497.6±52.7
# [10] = 0 min after 30 s mouthwash with 25 ml, n=3
# [11] = 120 min after nitrate ingestion, after breathhold
compound,measurement,setting,value
O=C1O[C@H]([C@@H](O)CO)C(O)=C1O [ascorbic acid],plateau NO release,[1]; [8],155.0 ± 27.6 pmol/s
same,peak level of NO,[1]; [9],2482.5±601.9 ppb
same,increase of peak concentration,[1]; immediately after mouthwash,around 400%
same,increase of plateau level compared to baseline,[1]; immediately after mouthwash,~300%
same,effect on NO production,[2],marked elevation in NO production
polyoxyethylene sorbitan monolaurate [1% Tween-20 ®],mean relative change in NO output compared to baseline,[3]; [10],−9% at
same,mean relative change in NO output compared to baseline,[3]; 5 min after mouthwash,−6% at
O=S(=O)([O-])[O-].[Fe+2] [100 mg FeSO4],effect on NO output,[3],increased NO output
O=C([O-])O.[Na+] [sodium bicarbonate],plateau NO release,[1]; 120 s after 30 s mouthwash,34.4 ± 3.6 pmol/s
same,plateau NO release,[1]; [8],31.3 ± 3.1 pmol/s
same,peak level of NO,[1]; [9],309.2±43.0 ppb
same,reduction of plateau,[4]; mouthwash 180 min after nitrate load,more than 30%
same,plateau NO release,"[4]; mouthwash 180 min after nitrate load, before mouthwash 52.7±4.8",36.2 ± 4.2 pmol/s
same,mean relative change in NO output compared to baseline,[3]; [10],−7% at
same,mean relative change in NO output compared to baseline,[3]; 5 min after mouthwash,−5% at
same,mean relative change in NO output compared to baseline,[3]; 15 min after mouthwash,−8% at
same,mean relative change in NO output compared to baseline,[3]; 30 min after mouthwash,−8% at
"O=N[O-].[K+] [nitrite solution, potassium nitrite]",NO concentration in head space of incubated saliva,"[5]; 5 ml saliva + 0.5 ml 20 mM nitrite, about 40° C., 15 min, pure saliva 59.5±29.8",396.4±138.2 ppb
same,increase of NO formation versus pure saliva,[5]; nitrite added to saliva,more than 500%
same,increase of plateau NO release compared to baseline,[1]; 0.1 M nitrite solution,> 40 fold
same,peak level of NO,[1]; 60 s after 30 s mouthwash,2812.1±622.1 ppb
same,plateau NO release,[1]; 60 s after 30 s mouthwash,225.2 ± 44.0 pmol/s
same,plateau NO release,"[1]; dose-response rinse, 1 mM nitrite solution, one single-breath after rinsing",55.0 ± 8.7 pmol/s
same,plateau NO release,"[1]; dose-response rinse, 0.1 M nitrite solution",1791.8 ± 404.8 pmol/s
CC(=O)O.CC(=O)O.NC(=N\CCCCCC/N=C(N)/N=C(\N)Nc1ccc(Cl)cc1)/N=C(\N)Nc1ccc(Cl)cc1 [chlorhexidine acetate],immediate decrease of NO compared to baseline,"[1]; 0.2% mouthwash, control (fasting) situation",~30%
same,NO release,"[1]; immediately after 30 s mouthwash with 2.5 cl 0.2%, pH 8.0, separate day, baseline 33.9±2.9",24.1 ± 3.5 pmol/s
same,NO release,"[4]; immediately after 0.2% mouthwash (2.5 cl, 30 s) given 90 min after nitrate load, before mouthwash 60.8±6.4",33.9 ± 4.3 pmol/s
same,immediate reduction of NO levels,[4]; mouthwash 90 min after nitrate load,~50%
same,mean relative change in NO output compared to baseline,[3]; [10],−14% at
same,mean relative change in NO output compared to baseline,[3]; 5 min after mouthwash,−11% at
same,mean relative change in NO output compared to baseline,[3]; 15 min after mouthwash,−5% at
same,mean relative change in NO output compared to baseline,[3]; 30 min after mouthwash,−10% at
"OO [1% H2O2, hydrogen peroxide]",effect on NO output,[3],increased NO output
O=[N+]([O-])[O-].[K+] [potassium nitrate],NO release during the plateau,"[6]; 120 min after ingestion of 400 mg potassium nitrate, without breathhold, baseline 31.2±3.0, mean±SEM n=10",77.0 ± 15.2 pmol/s
same,increase of peak NO amount compared to baseline,[6]; [11],130%
same,peak level: total amount NO released during the first 40% of the exhalation,[6]; [11],819 ± 160.8 pmol
same,NO release during the plateau,"[6]; 120 min after nitrate ingestion, with breathhold, baseline 31.9±4.5",70.8 ± 11.6 pmol/s
same,increase of plateau NO release compared to baseline,"[6]; 120 min after nitrate ingestion, without breathhold",~150%
same,changes in nasal NO production,[7],no significant changes in NO production
same,NO release,"[4]; 90 min after 400 mg potassium nitrate, not fasting, control 34.8±4.2",60.8 ± 6.4 pmol/s
same,increase of NO release compared to control levels,[4]; 90 min after nitrate load,~2 fold
